Measured values as given in patent US20230100707A1, “MELANOMA THERAPEUTICS” (ESCAPE THERAPEUTICS, INC., priority 2020, published 2023).
Where no end group is shown, it is not given here.

Columns and labels:
Human Fibroblasts = assay: Trypan blue dye exclusion toxicity on human fibroblasts; assay type: cell-based; settings: for cell death: 1 millimolar, 72 hours of incubation, fibroblasts; for % toxicity: trypan blue
Procedure: (§1) Cellular toxicity was measured using a trypan blue dye exclusion assay. Cells were cultured in 6-well plates at a density of 4×10^5 cells per well. […] After 24 hours, an aliquot was taken and cells counted using a hemacytometer. Cytotoxicity was measured according to the following formula: […]
(§2) The same procedure was repeated after 3 and 6 days of incubation.

[1] = system: Human Primary Melanocytes; assay: Trypan blue dye exclusion toxicity on human primary melanocytes; assay type: cell-based; settings: for cell death: 1 millimolar, 72 hours of incubation, melanocytes; for % toxicity: trypan blue
Procedure: as §1, §2

[2] = system: human epidermal keratinocytes; assay: Cytotoxicity towards human epidermal keratinocytes (figures); assay type: cell-based; settings: normal human epidermal keratinocytes, 3 millimolar in figure
Procedure: Human neonatal epidermal keratinocytes were cultured in Epilife media containing 60 μM of calcium chloride (Thermo Fisher Scientific, NY). All cell cultures were incubated in a humidified chamber at 37 degrees Celsius and 5 percent CO2.
The figures show human epidermal keratinocytes with 3 millimolar P5, human epidermal keratinocytes with 3 millimolar P14, and human epidermal keratinocytes with 3 millimolar HQ.

mouse melanoma cells = settings: for cell death / cytotoxicity: 3 millimolar, incubation for 3 days, MTT (FIG. 4); for cytotoxicity to mouse melanoma (figure): treated with 3 millimolar, figure vs untreated
Procedure: (§3) Human and mouse melanoma cell lines as wells as Fibroblasts were cultured using DMEM with L-glutamine, 10 percent FBS and 1 percent P/S (Thermo Fisher Scientific, NY). Human melanocytes were cultured using medium 254 (Thermo Fisher Scientific, NY) and incubated at 37 degrees Celsius in a humidified 5 percent CO2 chamber.
(§4) Proliferation rates were determined using a TACS® MTT Cell Proliferation Kit (R&D Systems, Minneapolis, Minn.). Cells were seeded at 2.5×10 ^4 per well in 96-well plates in a humidified atmosphere with 5 percent CO2 at 37 degrees Celsius. Twenty-four hours later, oligopeptides or hydroquinone were added to the corresponding wells at varying concentrations (0.03, 0.1, 0.3, 1, and 3 millimolar (mM)), and cultures were incubated for 72 hours. The remainder of the procedure was performed following the manufacturer's protocol.

[3] = system: human metastatic melanoma line harboring the V600E BRAF mutation; assay: MTT cell proliferation and viability assay, human melanoma cells
Procedure: as §3, §4

| Molecule | cell death (Human Fibroblasts) [%] | % toxicity (Human Fibroblasts; Day 1, 30 μM) [%] | % toxicity (Human Fibroblasts; Day 1, 100 μM) [%] | % toxicity (Human Fibroblasts; Day 1, 300 μM) [%] | % toxicity (Human Fibroblasts; Day 1, 1000 μM) [%] | % toxicity (Human Fibroblasts; Day 3, 30 μM) [%] | % toxicity (Human Fibroblasts; Day 3, 100 μM) [%] | % toxicity (Human Fibroblasts; Day 3, 300 μM) [%] | % toxicity (Human Fibroblasts; Day 3, 1000 μM) [%] | % toxicity (Human Fibroblasts; Day 6, 30 μM) [%] | % toxicity (Human Fibroblasts; Day 6, 100 μM) [%] | % toxicity (Human Fibroblasts; Day 6, 300 μM) [%] | % toxicity (Human Fibroblasts; Day 6, 1000 μM) [%] | cell death [1] [%] | % toxicity ([1]; Day 1, 30 μM) [%] | % toxicity ([1]; Day 1, 100 μM) [%] | % toxicity ([1]; Day 1, 300 μM) [%] | % toxicity ([1]; Day 1, 1000 μM) [%] | % toxicity ([1]; Day 3, 30 μM) [%] | cytotoxic effects towards keratinocytes [2] | also measured |
| --- | --- | --- | --- | --- | --- | --- | --- | --- | --- | --- | --- | --- | --- | --- | --- | --- | --- | --- | --- | --- | --- |
| Oc1ccc(O)cc1 [HQ, Hydroquinone, reference compound] | 100 | 3 | 17 | 27 | 100 | 9 | 20 | 44 | 100 | 15 | 30 | 54 | 100 | 100 | 41 | 98 | 100 | 100 | 53 | indiscriminate cytotoxicity | % toxicity (Human Fibroblasts; Day 1, 3000 μM): 100%; % toxicity (Human Fibroblasts; Day 3, 3000 μM): 100%; % toxicity (Human Fibroblasts; Day 6, 3000 μM): 100%; % toxicity ([1]; Day 1, 10 μM): 27%; % toxicity ([1]; Day 3, 10 μM): 29%; % toxicity ([1]; Day 3, 100 μM): 100%; % toxicity ([1]; Day 3, 300 μM): 100%; % toxicity ([1]; Day 3, 1000 μM): 100%; % toxicity ([1]; Day 6, 10 μM): 35%; % toxicity ([1]; Day 6, 30 μM): 60%; % toxicity ([1]; Day 6, 100 μM): 100%; % toxicity ([1]; Day 6, 300 μM): 100%; % toxicity ([1]; Day 6, 1000 μM): 100%; cell death / cytotoxicity (mouse melanoma cells): 90%; cytotoxicity ([3]; human, 72 h, 1 mM): ~80% |
| CC(C)CC(NC(=O)C1CCCN1)C(=O)NCC(=O)O (centres unmarked) [P5, PLG] | 3 | 0.1 | 0.1 | 0.1 | 2.1 | 0.1 | 0.1 | 0.5 | 2.6 | 0.1 | 0.1 | 1.1 | 3.9 | 9 | 0.1 | 0.1 | 2.2 | 7.8 | 0.1 | very little to no cytotoxic effects | % toxicity (Human Fibroblasts; Day 1, 10 μM): 0.1%; % toxicity (Human Fibroblasts; Day 3, 10 μM): 0.1%; % toxicity (Human Fibroblasts; Day 6, 10 μM): 0.1%; % toxicity ([1]; Day 1, 3000 μM): 13.3%; % toxicity ([1]; Day 3, 100 μM): 0.1%; % toxicity ([1]; Day 3, 300 μM): 2.4%; % toxicity ([1]; Day 3, 1000 μM): 8.7%; % toxicity ([1]; Day 3, 3000 μM): 13.5%; % toxicity ([1]; Day 6, 30 μM): 0.1%; % toxicity ([1]; Day 6, 100 μM): 0.1%; % toxicity ([1]; Day 6, 300 μM): 2.7%; % toxicity ([1]; Day 6, 1000 μM): 9.3%; % toxicity ([1]; Day 6, 3000 μM): 14.5%; cytotoxicity to mouse melanoma (figure) (mouse melanoma cells): selectively cytotoxic |
| RRFVLL [P14, RRFVLL] |  |  |  |  |  |  |  |  |  |  |  |  |  |  |  |  |  |  |  | very little to no cytotoxic effects | cell death / cytotoxicity (mouse melanoma cells): 49%; cytotoxicity to mouse melanoma (figure) (mouse melanoma cells): selectively cytotoxic; cytotoxicity ([3]; 1 millimolar, human melanoma cells, MTT (FIG. 5)): ~36%; cytotoxicity to human melanoma (figure) ([3]; treated with 3 millimolar, figure vs untreated): selectively cytotoxic |
